The source of these data is patent US12485108B2, “Method for treating fatty liver disease and/or steatohepatitis” (BEIJING TIDE PHARMACEUTICAL CO., LTD., priority 2019, dated 2025).

Data set [1] has as its system Carbon Tetrachloride Induced Mouse Model. Nature of the data set: Carbon tetrachloride induced mouse model. Format: in vivo, mice. As to conditions: Picrosirius red staining. How it is done:
Mice which were 8-10 weeks old (purchased from Jiangsu GemPharmatech Co., Ltd.) were randomly divided into 4 groups (8 animals in each group) according to their body weights: a model group (administrated with a vehicle, 0.5% CMC-Na), a compound C (300 mg/kg) administration group, a compound C (100 mg/kg) administration group, and a telmisartan (10 mg/kg) administration group. Each mouse was injected intraperitoneally with 0.05 ml of 40% CCl4 twice a week, for 6 consecutive weeks. Starting from day 15, each group underwent an intragastric administration of the corresponding substance once a day, for 28 consecutive days. Meanwhile, a normal control group was set wherein the mice in this group were fed a normal diet combined with normal drinking water. Animals were euthanized 2 h after the final administration, and their liver tissues were harvested and stained with Picrosirius red to assess collagen accumulation.

In data set [2] the test system is High Fat+Streptozotocin Induced Mouse Model. Nature of the data set: High fat+streptozotocin induced mouse steatohepatitis model. The data set is classed as in vivo, mice. The following applies: for Inhibition Rate (%) on Ballooning Degeneration of Liver Cells: H&E staining score of liver vs model group; for Inhibition Rate (%) on Ballooning Degeneration of Liver Cells / Inhibition Rate (%) on Collagen Accumulation in Liver Tissue / Body Weight / Liver Weight / Liver Weight/Body Weight / Inhibition Rate (%) on Fatty Degeneration: oral once a day for 21 days, compound C 100 mg/kg, telmisartan 50 mg/kg; for Inhibition Rate (%) on Collagen Accumulation in Liver Tissue: Picrosirius red staining score of liver vs model group; for Body Weight / Liver Weight / Liver Weight/Body Weight: at the end of the test; for Body Weight: after fasting; for Inhibition Rate (%) on Fatty Degeneration: oil red O staining score of liver vs model group. Here is the method: Pregnant mice were purchased from Shanghai Lingchang Laboratory Animal Co., Ltd. Thirty 2-day-old newborn male mice were chosen for the test. Each mouse was injected with 200 μg of streptozotocin (STZ, purchased from Sigma) and fed a high-fat diet for 2 weeks from 4-week-old to induce a steatohepatitis model. Meanwhile, another ten mice were selected as a normal group where they were fed a normal diet without injection of STZ. After 2 weeks of high-fat diet feeding, the mice were divided into 3 groups according to their body weights and fasting blood glucose levels: a model group, a compound C administration group, and a telmisartan (purchased from TOKYO CHEMICAL) administration group. Each group underwent once-a-day oral administration of the corresponding substance for 21 consecutive days. The body weights of mice were recorded each day (see FIG. 1A and FIG. 1B), and after the final administration, the body weights of mice after fasting were recorded (see Table 2 and FIG. 2A and FIG. 2B). The animals were euthanized, and their liver tissues were harvested. The liver tissues were weighed and subjected to histologic scoring (blind assessment) in respect of ballooning degeneration, fatty degeneration, and collagen accumulation, etc. Histologic changes were assessed by hematoxylin and eosin (H&E) staining, oil red O staining and Picrosirius red staining of the liver tissues, where the H&E staining was used for assessing the ballooning degeneration of liver cells, the oil red O staining was used for reflecting the fatty degeneration of liver and the Picrosirius red staining was used for assessing collagen accumulation. Relevant scores are shown in FIG. 3A, FIG. 3B and FIG. 3C, and inhibition rates of various histologic changes are shown in Table 3.
Scoring criteria: fatty degeneration is scored on a scale from 0 to 3, where lesion area <5% is scored as 0, lesion area of 5-33% is scored as 1, lesion area of 33-66% is scored as 2 and lesion area >66% is scored as 3. Ballooning degeneration of liver cells is scored on a scale from 0 to 2, where no ballooning degeneration is scored as 0, little ballooning degeneration is a scored as 1, and ballooning degeneration of most cells or significant ballooning degeneration is scored as 2. Collagen accumulation is scored on a scale from 0 to 4 with reference to the scoring criteria reported in Brunt E M, et al., Hepatology (2011).
The inhibition rates (%) on fatty degeneration, ballooning degeneration of liver cells and collagen accumulation in liver tissue shown in Table 3 were calculated according to the following formulae, respectively (the normal group was scored as 0): Inhibition rate (%) on fatty degeneration=100%×(the average score of the model group−the average score of the administration group)/(the average score of the model group−the average score of the normal group) Inhibition rate (%) on ballooning degeneration of liver cells=100%×(the average score of the model group−the average score of the administration group)/(the average score of the model group−the average score of the normal group) Inhibition rate (%) on collagen accumulation in liver tissue=100%×(the average score of the model group−the average score of the administration group)/(the average score of the model group−the average score of the normal group)

Data set [3] relates to High Fat+High Cholesterol+Carbon Tetrachloride Induced Mouse Model. Nature of the data set: High fat+high cholesterol+carbon tetrachloride induced mouse steatohepatitis model. The data set is classed as in vivo, mice. The following applies: oral once a day, three 21-day courses, compound C 100 mg/kg, telmisartan 10 mg/kg; for Collagen accumulation in liver tissue: Picrosirius red staining, vs model group (compound C p<0.01; telmisartan p>0.05); for Serum cholesterol level / Serum low density lipoprotein level: vs model group (compound C p<0.01). The text has this:
Mice which were 8-10 weeks old (purchased from Jiangsu GemPharmatech Co., Ltd.) were fed a western diet (a high fat+high cholesterol feed, purchased from Beijing Hfk Bioscience Co., Ltd.) and injected intraperitoneally with carbon tetrachloride to induce a steatohepatitis model. Experimental animals were randomly divided into 3 groups (8 animals in each group) according to their body weights: a model group (administrated with a vehicle composed of PEG400, Tween-80 and deionized water), a compound C (100 mg/kg) administration group, and a telmisartan (10 mg/kg) administration group. Starting from day 5 (D5) of western diet feeding, each group underwent an intraperitoneal injection of 0.05 ml of 20% CCl4 once a week, for 12 weeks. Starting from day 21, the vehicle, compound C and telmisartan were each administered orally once a day, for three 21-day treatment courses at one-week intervals. Meanwhile, a normal control group was set wherein the mice were fed a normal diet combined with normal drinking water. Peripheral blood was taken from animals 2 h after the final administration, and serum was isolated. The animals were euthanized and their liver tissues were harvested. The serum was mainly used to measure the levels of cholesterol and low density lipoprotein. The liver tissues were stained with Picrosirius red to assess collagen accumulation.

Data set [4] deals with High Fat+High Cholesterol Diet and N-Diethylnitrosamine Induced Rat Model. Nature of the data set: High fat+high cholesterol diet and N-diethylnitrosamine induced rat model, NAS scoring. The following applies: compound C administration groups (50 mg/kg and 100 mg/kg), intragastric once a day for 49 days; H&E staining; model group score 6. Format: in vivo, SD rats. How it is done:
Pregnant SD rats were purchased from Shanghai Jihui Laboratory Animal Care Co., Ltd, and neonatal rats obtained therefrom were used in this study. Forty male neonatal rats were chosen to receive a single injection of N-diethylnitrosamine (DEN, purchased from Sigma) at 2 weeks of age. After the neonatal rats were fed rat milk for 2 weeks, they were randomly divided into 4 groups (10 animals in each group) according to their body weights: a model group (0.5% CMC-Na), a compound C (50 mg/kg) administration group, a compound C (100 mg/kg) administration group, and an obeticholic acid (OCA, purchased from WuXi AppTec (Wuhan), 30 mg/kg) administration group. Each neonatal rat was fed a western diet (a high fat+high cholesterol feed, purchased from Trophic Animal Feed High-Tech Co., Ltd, China, Su Si certificate (2014) No. 06092) for 8 weeks. Meanwhile, another 8 male neonatal rats were selected as a normal group, which were fed rat milk for 4 weeks and then fed a normal diet instead of the high fat+high cholesterol diet. Starting from day 8 of high fat+high cholesterol diet feeding, the vehicle (0.5% CMC-Na), compound C and OCA were each administrated intragastrically once a day, for 49 consecutive days.
Animals were euthanized 2 h after the final administration, and their liver tissues were harvested. […]

In data set [5] the test system is High Fat+High Cholesterol+High Sugar+Carbon Tetrachloride Induced Mouse Model. Nature of the data set: High fat+high cholesterol+high sugar+carbon tetrachloride induced mouse steatohepatitis model. The following applies: three 21-day courses; for Collagen accumulation in liver tissue: Picrosirius red staining; for Collagen accumulation in liver tissue / Serum cholesterol level / Serum low density lipoprotein level: oral once a day, compound C 100 mg/kg, telmisartan 10 mg/kg; for Serum cholesterol level / Serum low density lipoprotein level: vs model group (compound C p<0.05). Format: in vivo, mice. How it is done: Mice which were 8-10 weeks old (purchased from Jiangsu GemPharmatech Co., Ltd.) were fed a western diet (a high fat+high cholesterol feed, purchased from Beijing Hfk Bioscience Co., Ltd.) and a high-sugar solution (23.1 g/L D-fructose and 18.9 g/L D-glucose) and injected intraperitoneally with carbon tetrachloride to induce a steatohepatitis model. Starting from day 7 (D7) of western diet+high-sugar solution feeding, the mice were injected intraperitoneally with 0.05 ml of 20% carbon tetrachloride once a week, for 12 weeks. Animals were divided into groups (8 animals in each group) on day 28: a model group (administrated with a vehicle composed of PEG400, Tween-80 and deionized water), a compound C (100 mg/kg) administration group, and a telmisartan (10 mg/kg) administration group. Starting from day 28, the vehicle, compound C and telmisartan were each administered orally once a day, for three 21-day treatment courses at one-week intervals. Meanwhile, a normal control group was set wherein the mice were fed a normal diet combined with normal drinking water. Peripheral blood was taken from animals 2 h after the final administration, and serum was isolated. The animals were euthanized, and their liver tissues were harvested. The serum was mainly used to measure the levels of cholesterol and low density lipoprotein. The liver tissues were stained with Picrosirius red to assess collagen accumulation, and the ratio of endothelial cells to macrophages was measured by flow cytometry to reflect liver damage.

As for `Cn1c(C(=O)N2CC(F)(F)C2)cc2ccc(-c3nccc(Nc4ccc(-c5cn[nH]c5)cc4)n3)cc21` [Compound C], the “Collagen accumulation in liver tissue” value in data set [1] (100 mg/kg intragastric once a day for 28 days, vs model group (p<0.001)) is on record as “significantly reduced”. The “Collagen accumulation in liver tissue” value in data set [1] (300 mg/kg intragastric once a day for 28 days, vs model group (p<0.001)) is on record as “significantly reduced”. Further, the “Therapeutic effect (fatty degeneration, ballooning degeneration, collagen accumulation of liver tissue)” value in data set [2] (100 mg/kg oral once a day for 21 days) was “significant therapeutic effects”. In addition, in data set [2], the “Inhibition Rate (%) on Ballooning Degeneration of Liver Cells” value stood at 60.00%, the “Inhibition Rate (%) on Collagen Accumulation in Liver Tissue” value is given as 44.44%, the “Body Weight” value was 17.1 ± 0.59 g and the “Liver Weight” value turned out to be 872.3 ± 17.91 mg. Moreover, in data set [2], the “Liver Weight/Body Weight” value was 5.1 ± 0.15% and the “Inhibition Rate (%) on Fatty Degeneration” value is on record as 66.67%. Moreover, in data set [3], the “Collagen accumulation in liver tissue” value is given as “significantly reduced”, the Serum cholesterol level result was “significantly reduced” and the “Serum low density lipoprotein level” value was “significantly reduced”. Besides, the “NAS score of liver tissue” value in data set [4] was “about 4.2”. In addition, the “Collagen accumulation in liver tissue” value in data set [5] (vs model group (p<0.01)) is “significantly reduced”. In addition, the “Proportion of endothelial cells in liver tissue” value in data set [5] (flow cytometry, vs model group (p<0.01), compound C 100 mg/kg oral once a day) is “increased”. Besides, in data set [5] (flow cytometry, vs model group, compound C 100 mg/kg oral once a day), the “Proportion of macrophages in liver tissue” value is on record as “reduced at a certain extent”. Besides, in data set [5], the Serum cholesterol level entry is recorded as “significantly reduced” and the “Serum low density lipoprotein level” value is listed as “significantly reduced”.
Regarding `CCCc1nc2c(C)cc(-c3nc4ccccc4n3C)cc2n1Cc1ccc(-c2ccccc2C(=O)O)cc1` [Telmisartan, telmisartan, reference compound], the “Collagen accumulation in liver tissue” value in data set [1] (10 mg/kg intragastric once a day for 28 days, vs model group (p>0.05)) is recorded as “not inhibited”. Moreover, in data set [2], the “Inhibition Rate (%) on Ballooning Degeneration of Liver Cells” value came to 11.12%, the “Inhibition Rate (%) on Collagen Accumulation in Liver Tissue” value was determined as 38.27%, the “Body Weight” value was determined as 15.7 ± 0.84 g and the “Liver Weight” value was 760.1 ± 48.78 mg. Also, in data set [2], the “Liver Weight/Body Weight” value was 4.9 ± 0.39% and the “Inhibition Rate (%) on Fatty Degeneration” value is −11.17%. In data set [3], the “Collagen accumulation in liver tissue” value is given as “not inhibited”, the Serum cholesterol level entry is recorded as “no effect” and the “Serum low density lipoprotein level” value is “no effect”. Also, the “Collagen accumulation in liver tissue” value in data set [5] (vs model group (p<0.01)) is on record as “significantly reduced”. Further, in data set [5], the Serum cholesterol level entry is listed as “no effect” and the “Serum low density lipoprotein level” value is listed as “no effect”.
